Assay results taken from US11858894B2, “Crystalline form of 1-(5-(2,4-Difluorophenyl)-1-((3-fluorophenyl)sulfonyl)-4-methoxy-1H-pyrrol-3-yl)-n-methylmethanamine salt” (Daewoong Pharmaceutical Co., Ltd., priority 2016, dated 2024).

Tests used:
Solubility test in water = assay type: physicochemical; conditions: thermodynamic from solid; deionized water, shaking and ultrasonic shaking
Procedure: For the solubility test in water, a sample of less than 10 mg was first precisely weighed and taken and placed into a vial, to which 50 μl of deionized water was added, shaking for 30 seconds and ultrasonic shaking for 1 minute were carried out, and these processes were repeated several times. The water solubility was calculated by measuring the amount of water used to dissolve all the samples.

[1] = Stability confirmation test (impurity formation during storage under severe conditions, liquid chromatography); assay type: physicochemical
Procedure: The stability test was carried out for the crystalline forms prepared in the Examples to evaluate the degree to which impurities were formed during storage under severe conditions (moisture-proof condition and high-humidity exposure condition). The results of the stability test under the moisture-proof condition were shown in Table 2 below, and the results of the stability test under the high-humidity exposure condition were shown in Table 3 below. For the stability test, vials containing 10 mg of each sample which was precisely weighed and taken were prepared in the planned quantity, and they were stored by dividing into the moisture-proof condition (60° C. and less than 10% relative humidity) and under the high-humidity exposure condition (60° C. and 95% relative humidity). However, under the high-humidity exposure condition, a stopper of the vial was not used to keep so that the sample is in sufficient contact with a moisture in the air. At a fixed point of time after the initiation of the test, two vials per point of time were taken (number of samples per test n=2). 10 ml of methanol was added to each vial to dissolve the sample, which was then centrifuged. The resulting supernatant was analyzed using a liquid chromatography. The peak area was determined by integration for all detected peaks, and the relative peak area for the main component and the total impurity was calculated and expressed as an average value.

[2] = high-humidity exposure condition (60° C., 95% relative humidity), After 1 week
[3] = high-humidity exposure condition (60° C., 95% relative humidity), After 2 weeks
[4] = high-humidity exposure condition (60° C., 95% relative humidity), After 4 weeks
[5] = high-humidity exposure condition (60° C., 95% relative humidity), Initial
[6] = moisture-proof condition (60° C., less than 10% relative humidity), After 2 weeks
[7] = moisture-proof condition (60° C., less than 10% relative humidity), After 4 weeks
[8] = moisture-proof condition (60° C., less than 10% relative humidity), Initial

solubility (Solubility test in water)	Peak area of main component [1, 2]	Peak area of total impurities [1, 2]	Peak area of main component [1, 3]	Peak area of total impurities [1, 3]	Peak area of main component [1, 4]	Peak area of total impurities [1, 4]	Peak area of main component [1, 5]	Peak area of total impurities [1, 5]	Peak area of main component [1, 6]	Peak area of total impurities [1, 6]	Peak area of main component [1, 7]	Peak area of total impurities [1, 7]	Peak area of main component [1, 8]	Peak area of total impurities [1, 8]	Compound
< 160 µg/mL															CNCc1cn(S(=O)(=O)c2cccc(F)c2)c(-c2ccc(F)cc2F)c1OC [Comparative Example 1, 1-(5-(2,4-difluorophenyl)-1-((3-fluorophenyl)sulfonyl)-4-methoxy-1H-pyrrol-3-yl)-N-methylmethanamine free base]
	99.81%	0.19%	99.80%	0.20%	99.80%	0.20%	99.82%	0.18%	99.80%	0.19%	99.80%	0.20%	99.82%	0.18%	CNCc1cn(S(=O)(=O)c2cccc(F)c2)c(-c2ccc(F)cc2F)c1OC.Cl [Example 1-1, 1-(5-(2,4-difluorophenyl)-1-((3-fluorophenyl)sulfonyl)-4-methoxy-1H-pyrrol-3-yl)-N-methylmethanamine hydrochloride]
	99.56%	0.44%	99.53%	0.47%	99.47%	0.54%	99.55%	0.45%	99.61%	0.39%	99.55%	0.45%	99.55%	0.45%	CNCc1cn(S(=O)(=O)c2cccc(F)c2)c(-c2ccc(F)cc2F)c1OC.O=C(O)CCC(=O)O [Example 3-1, 1-(5-(2,4-difluorophenyl)-1-((3-fluorophenyl)sulfonyl)-4-methoxy-1H-pyrrol-3-yl)-N-methylmethanamine succinate]
	99.48%	0.52%	99.43%	0.57%	99.23%	0.77%	99.52%	0.48%	99.54%	0.46%	99.48%	0.52%	99.52%	0.48%	CNCc1cn(S(=O)(=O)c2cccc(F)c2)c(-c2ccc(F)cc2F)c1OC.O=C(O)C(O)C(O)C(=O)O [Example 4-1, 1-(5-(2,4-difluorophenyl)-1-((3-fluorophenyl)sulfonyl)-4-methoxy-1H-pyrrol-3-yl)-N-methylmethanamine tartrate]
1730 to 2600 µg/mL	99.40%	0.60%	99.32%	0.68%	99.30%	0.70%	99.38%	0.62%	99.36%	0.64%	99.37%	0.63%	99.38%	0.62%	CNCc1cn(S(=O)(=O)c2cccc(F)c2)c(-c2ccc(F)cc2F)c1OC.O=C(O)/C=C/C(=O)O [Example 5-1, 1-(5-(2,4-difluorophenyl)-1-((3-fluorophenyl)sulfonyl)-4-methoxy-1H-pyrrol-3-yl)-N-methylmethanamine fumarate]
